Assay results: ChEMBL document CHEMBL3507680, “University of Dundee, Gates Library screen for HepG2 cell viability”

Assay: Human HepG2 cell viability assay in 384 well format
Assay type: toxicity, cell-based
Set-up: dose 125 nL, time 70.5 hour; concentration not given beside the values
Conditions: HepG2 cells, read-out: Inhibition

O=C(OCCNc1ncccn1)c1ccc(Cl)s1
cytotoxicity at 70.5 h: -3.07%

Cn1ccnc1CN1CCN2C[C@H](Oc3cncnc3)C[C@H]2C1
cytotoxicity at 70.5 h: 0.558%

CCN(CC(C)C#N)C(=O)CNc1ccc(C(N)=O)c(C)c1 (configuration not stated)
cytotoxicity at 70.5 h: -1.05%

CCOc1ccccc1OC1CCN(C(=O)c2cc[nH]n2)CC1
cytotoxicity at 70.5 h: -1.68%

O=c1[nH]c2ccccc2c(=O)n1Cc1nnnn1C1CC1
cytotoxicity at 70.5 h: 2.86%

NC(=O)CCNC(=O)NCC1(c2ccccc2Cl)CCC1
cytotoxicity at 70.5 h: -2.77%

CCS(=O)(=O)N1CCOC2(CCCN(c3ccccn3)C2)C1 (configuration not stated)
cytotoxicity at 70.5 h: -2.6%

Cc1noc(CN2CCN(CCS(C)(=O)=O)CC2)n1
cytotoxicity at 70.5 h: -2.73%

CN(C)CC1CN(Cc2coc(-c3ccccc3)n2)CCO1 (configuration not stated)
cytotoxicity at 70.5 h: -5.29%

COc1ccc(CN(C)[C@@H]2COC[C@H]2c2ccc(F)cc2)c(OC)c1
cytotoxicity at 70.5 h: 0.309%

N#Cc1ccccc1C(=O)Nc1cccc(CN2CCC(CO)CC2)c1
cytotoxicity at 70.5 h: -5.53%

O=C(CN(CC(O)c1ccc(F)cc1)C1CC1)Nc1cccnc1 (configuration not stated)
cytotoxicity at 70.5 h: -24.7%

COC1COC2(CCN(Cc3ccc4c(c3)OCO4)CC2)C1 (configuration not stated)
cytotoxicity at 70.5 h: 0.98%

O=C(NCc1nncn1-c1ccccc1)C1CCCCC1
cytotoxicity at 70.5 h: -0.117%

CS(=O)(=O)NC1CCN(C(=O)NCCc2ccccn2)CC1
cytotoxicity at 70.5 h: 13.9%

COc1cccc(-c2nc(C)c(C(=O)N[C@@H](CC(C)C)C(=O)O)s2)c1
cytotoxicity at 70.5 h: -18.1%

CCn1ccnc1C1CCN(Cc2cccc(C)n2)CC1
cytotoxicity at 70.5 h: 2.62%

O=C(N[C@@H]1CCNC[C@H]1O)c1ccc(F)c(F)c1
cytotoxicity at 70.5 h: -5.14%

O=C(CN1CCOC1=O)N1CCC2(CCc3ccccc32)CC1
cytotoxicity at 70.5 h: 7.69%

COC[C@@]12CCO[C@@H]1CCN(C(=O)C1CCSCC1)C2
cytotoxicity at 70.5 h: -5.18%

Cc1nnc(NCc2cccnc2N(C)C)c(C#N)c1C
cytotoxicity at 70.5 h: 2.49%

CN(C)CC(=O)N1CCN(c2cc(N3CCCC3CO)ncn2)CC1 (configuration not stated)
cytotoxicity at 70.5 h: -6.08%

c1cc(C2CCN(c3ncnc4c3CCNCC4)CC2)ccn1
cytotoxicity at 70.5 h: -10.9%

CN1CCC(C(=O)N2CCN(Cc3cccc(Cl)c3)CC2)CC1=O (configuration not stated)
cytotoxicity at 70.5 h: 3.2%

O=C(CC1CC1)N[C@@H]1CN(Cc2ccncc2)C[C@@H]2CCCO[C@@H]21
cytotoxicity at 70.5 h: -0.814%

CS(=O)(=O)CCC(=O)N(CCc1cccc(F)c1)C1CC1
cytotoxicity at 70.5 h: -11.4%

Fc1ccc(-c2ccc(CNC3CCc4ncnn4C3)o2)cc1 (configuration not stated)
cytotoxicity at 70.5 h: -9.49%

NC(=O)N1CCCC(C(=O)N2CCN(c3nsc4ccccc34)CC2)C1 (configuration not stated)
cytotoxicity at 70.5 h: -3.95%

CN(C)Cc1nnc(C2CCCN(Cc3ccc(Cl)s3)C2)n1C (configuration not stated)
cytotoxicity at 70.5 h: 5.14%

O=C(Nc1cc(-n2cccc2)ccc1F)N1CCCC1
cytotoxicity at 70.5 h: -11.7%

Cc1nc(C)c(C(=O)N(C)Cc2cnn(C)c2)s1
cytotoxicity at 70.5 h: 1.01%

Cc1nc[nH]c1C(=O)N1CCC2(CC1)CN(CCN(C)C)C(=O)O2
cytotoxicity at 70.5 h: -6.22%

Cc1cc(SCC(=O)O)nc2nn(CC(F)F)c(C)c12
cytotoxicity at 70.5 h: -1.44%

O=C(O)c1ccccc1-c1cnc(Cn2c(=O)cc[nH]c2=O)s1
cytotoxicity at 70.5 h: -6.43%

Cc1noc(C)c1NC(=O)Cn1cc(Br)ccc1=O
cytotoxicity at 70.5 h: 0.532%

Cc1nc(C)c(CN2CCOC(CN(C)c3cccnn3)C2)s1 (configuration not stated)
cytotoxicity at 70.5 h: -8.03%

CN(Cc1nnc(C2CCC2)o1)C(C(N)=O)c1cccc(F)c1 (configuration not stated)
cytotoxicity at 70.5 h: -1.86%

CCc1cc(N2CCC(NCCSc3nnnn3C)CC2)nc(C)n1
cytotoxicity at 70.5 h: -0.17%

Cc1ccc(N2CC[C@H]3OCC[C@@]3(C(=O)N3CCCC3)C2)nn1
cytotoxicity at 70.5 h: -9.8%

C1CCC(c2nnc3sc(C4CCCO4)nn23)C1 (configuration not stated)
cytotoxicity at 70.5 h: 10.1%

CCOCC1CN(S(=O)(=O)C2CC2)Cc2nn(C)cc21 (configuration not stated)
cytotoxicity at 70.5 h: -5.98%

c1ccc2nc(N3CCOC(Cn4cccn4)C3)cnc2c1 (configuration not stated)
cytotoxicity at 70.5 h: -11.7%

Cc1c(F)cccc1CN1CCn2nc(CNC(=O)N(C)C)cc2C1
cytotoxicity at 70.5 h: 20%

CCn1cnnc1CN(C)c1nccc(C2CCCC2)n1
cytotoxicity at 70.5 h: -7.13%

Fc1cc(CN2CCCC2Cn2cncn2)c2ncccc2c1 (configuration not stated)
cytotoxicity at 70.5 h: 4.94%

Cc1cnn(CC2CCCN2c2nn3cc(C)nc3s2)c1 (configuration not stated)
cytotoxicity at 70.5 h: -4.6%

Cc1cc(NCC(=O)N(C)CC(F)(F)F)c(C(N)=O)cc1F
cytotoxicity at 70.5 h: 1.83%

c1cc(-c2ccc3nc(C4CCN(CC5CC5)CC4)nn3c2)ccn1
cytotoxicity at 70.5 h: 3.64%

O=C(N[C@H]1COC[C@@H]1N1CCCC1)c1csc(Cc2ccccc2)n1
cytotoxicity at 70.5 h: -14.1%

CS(=O)(=O)NCCN1CCCC1c1noc(C2CC2)n1 (configuration not stated)
cytotoxicity at 70.5 h: 19.5%

Cc1oc(C)c(C(=O)NCc2ccccc2CN(C)C)c1C
cytotoxicity at 70.5 h: 16.8%

CN(c1ccccc1)S(=O)(=O)c1cc2c(c(C(=O)O)c1)OCCO2
cytotoxicity at 70.5 h: -9.42%

COC(=O)N1CCc2ccccc2C1C(=O)NCc1cccs1 (configuration not stated)
cytotoxicity at 70.5 h: -6.75%

CCn1cnc(NC(=O)N2CCC(c3ccc(F)cc3)C2)n1 (configuration not stated)
cytotoxicity at 70.5 h: -8.46%

COCCOCCSc1nnc(Cc2ccccc2F)o1
cytotoxicity at 70.5 h: -4.09%

Cc1ccc(S(=O)(=O)NC2CNC(=O)C2)cc1C (configuration not stated)
cytotoxicity at 70.5 h: 0.672%

Cn1cc(-c2nc(CN3CCCCC3Cn3cncn3)cs2)cn1 (configuration not stated)
cytotoxicity at 70.5 h: 19.3%

CN(C)CCOCC1CN(CC2CCOCC2)Cc2nnn(C)c21 (configuration not stated)
cytotoxicity at 70.5 h: -6.51%

Cc1ccc(N2C(=O)N[C@@H]3CCN(C(=O)C4CCCC4)[C@@H]3C2=O)cc1
cytotoxicity at 70.5 h: -13.1%

CN1C[C@@H](NC(=O)C2CC2)C[C@H]1c1nc(-c2cnccn2)no1
cytotoxicity at 70.5 h: 1.69%

CCCC(NC(=O)c1ccccc1Br)c1nnn[nH]1 (configuration not stated)
cytotoxicity at 70.5 h: -3.33%

CCSCc1csc(-c2ccc(S(C)(=O)=O)cc2)n1
cytotoxicity at 70.5 h: -2.67%

CS(=O)(=O)N1C[C@@H](F)[C@@H](OCc2nc3ccccc3o2)C1
cytotoxicity at 70.5 h: 14.3%

CCOc1ccc(CN2CCc3nc4ccsc4c(=O)n3CC2)cc1
cytotoxicity at 70.5 h: -6.57%

CC(C)c1ccc(OCCC(=O)N2CCC(C(N)=O)CC2)cc1
cytotoxicity at 70.5 h: -4.09%

Cc1nn(C)c2ncc(CN3CCN(c4ncccn4)CC3)cc12
cytotoxicity at 70.5 h: -21.9%

Cc1cnn(CC2CN(Cc3ccc(-n4cccn4)cc3)CCO2)c1 (configuration not stated)
cytotoxicity at 70.5 h: -0.9%

O=C(CCc1ccco1)Nc1cc(C(F)(F)F)c[nH]c1=O
cytotoxicity at 70.5 h: -8.18%

CCN(CC)Cc1cn2c(n1)CN(C(=O)c1cc(C)on1)CC2
cytotoxicity at 70.5 h: -13.3%

CCn1cc(CNc2ccc3nccnc3c2)cn1
cytotoxicity at 70.5 h: 7.17%

COc1cc(-c2nccn2C(C)CCn2cccn2)cc2c1OCO2 (configuration not stated)
cytotoxicity at 70.5 h: 1.97%

CN(C)CC1CSCCCN1C(=O)c1ccc(-n2cccc2)cc1 (configuration not stated)
cytotoxicity at 70.5 h: -4.81%

CCCN1CCCC(O)(c2nc(C)c(COc3ccccc3)s2)CC1 (configuration not stated)
cytotoxicity at 70.5 h: 13.4%

Cc1ccc(CC(=O)NC(C)C(=O)N2CCS(=O)(=O)CC2)cc1 (configuration not stated)
cytotoxicity at 70.5 h: -2.68%

Cn1ccc(NC(=O)CN2CCC(Oc3cnccn3)CC2)n1
cytotoxicity at 70.5 h: 1.93%

CCOc1c(F)cccc1C(=O)N(C)CCc1ccccn1
cytotoxicity at 70.5 h: 36.5%

O=C1N(C2CCCCC2)CCCC12CCN(S(=O)(=O)c1cccnc1)C2 (configuration not stated)
cytotoxicity at 70.5 h: -5.02%

COC(=O)C(CNC(=O)Nc1nncs1)Cc1cccc(C)c1 (configuration not stated)
cytotoxicity at 70.5 h: -3.4%

Cc1cn2c(n1)CCC(NC(=O)CCn1ccnn1)C2 (configuration not stated)
cytotoxicity at 70.5 h: -8.67%

Cc1cc(N(Cc2ccccn2)C2CC2)n2nc(C(F)(F)F)nc2n1
cytotoxicity at 70.5 h: -0.852%

Cc1ccc2occ(CN3CCN(c4ncccn4)CC3)c(=O)c2c1
cytotoxicity at 70.5 h: 29.4%

O=C(CNc1cc(-n2cnnn2)ccc1F)Nc1cc(F)ccc1F
cytotoxicity at 70.5 h: -96.7%
